Legend:
[1] = system: HL-60(TB)
[2] = system: SW-620; assay: In vitro cytostatic effect (SRB): SW-620, Intestinal cancer
[3] = system: OVCAR-8; assay: In vitro cytostatic effect (SRB): OVCAR-8, Ovarian cancer
[4] = system: SF-295; assay: In vitro cytostatic effect (SRB): SF-295, Cancer of the central nervous system
[5] = system: U251; assay: In vitro cytostatic effect (SRB): U251, Cancer of the central nervous system
[6] = system: HCT-116; assay: In vitro cytostatic effect (SRB): HCT-116, Intestinal cancer
[7] = system: K-562; assay: In vitro cytostatic effect (SRB): K-562, Leukemia
[8] = system: SK-MEL-28; assay: In vitro cytostatic effect (SRB): SK-MEL-28, Melanoma
[9] = system: 768-0; assay: In vitro cytostatic effect (SRB): 768-0, Kidney cancer
[10] = system: EKVX; assay: In vitro cytostatic effect (SRB): EKVX, Lung cancer
[11] = system: M14; assay: In vitro cytostatic effect (SRB): M14, Melanoma
[12] = system: IGROV1; assay: In vitro cytostatic effect (SRB): IGROV1, Ovarian cancer
[13] = system: PC-3; assay: In vitro cytostatic effect (SRB): PC-3, Prostate cancer
[14] = system: SF-539; assay: In vitro cytostatic effect (SRB): SF-539, Cancer of the central nervous system
[15] = system: SNB-19; assay: In vitro cytostatic effect (SRB): SNB-19, Cancer of the central nervous system
[16] = system: HT29; assay: In vitro cytostatic effect (SRB): HT29, Intestinal cancer
[17] = system: DU-145; assay: In vitro cytostatic effect (SRB): DU-145, Prostate cancer
[18] = system: ACHN; assay: In vitro cytostatic effect (SRB): ACHN, Kidney cancer
[19] = system: NCI-H460; assay: In vitro cytostatic effect (SRB): NCI-H460, Lung cancer
[20] = system: SK-OV-3; assay: In vitro cytostatic effect (SRB): SK-OV-3, Ovarian cancer
[21] = system: UACC-62; assay: In vitro cytostatic effect (SRB): UACC-62, Melanoma
[22] = system: HS 578T; assay: In vitro cytostatic effect (SRB): HS 578T, Breast cancer
[23] = system: MDA-MB-435; assay: In vitro cytostatic effect (SRB): MDA-MB-435, Breast cancer
[24] = system: NCI-H522; assay: In vitro cytostatic effect (SRB): NCI-H522, Lung cancer
[25] = system: T-47D; assay: In vitro cytostatic effect (SRB): T-47D, Breast cancer
[26] = system: MDA-MB-231/ATCC; assay: In vitro cytostatic effect (SRB): MDA-MB-231/ATCC, Breast cancer
[27] = system: NCI-H23; assay: In vitro cytostatic effect (SRB): NCI-H23, Lung cancer
[28] = system: HOP-62; assay: In vitro cytostatic effect (SRB): HOP-62, Lung cancer
[29] = read-out: LC50, 48-hour incubation

CCCCCCCCCCCCCCCCCCOC(COP(=O)(O)OCC1OC(n2cc(F)c(=O)[nH]c2=O)CC1O)COP(=O)(O)OCC1OC(n2ccc(N)nc2=O)C(O)C1O (racemic) [NSC 698688-A/1, arabinocytidylyl-(5′→1)-2-O-octadecyl-rac-glycerylyl-(3→5′)-5-fluoro-2′-deoxyuridine]
GI50 ([1]; Leukemia, 48-hour incubation): 3.66 µM | TGI ([1]; Leukemia, 48-hour incubation): >1.00E − 04 mol/l | CC50 ([1]; read-out: LC50, Leukemia, 48-hour incubation): > 100 µM | GI50 ([2]; 48-hour incubation): 62.8 µM | TGI ([2]; 48-hour incubation): >1.00E − 04 mol/l | CC50 [2, 29]: > 100 µM | GI50 ([3]; 48-hour incubation): 0.968 µM | TGI ([3]; 48-hour incubation): >1.00E − 04 mol/l | CC50 [3, 29]: > 100 µM | GI50 ([4]; 48-hour incubation): 0.799 µM | TGI ([4]; 48-hour incubation): >1.00E − 04 mol/l | CC50 [4, 29]: > 100 µM | GI50 ([5]; 48-hour incubation): 3.14 µM | TGI ([5]; 48-hour incubation): 2.48E − 05 mol/l | CC50 [5, 29]: 73.8 µM | GI50 ([6]; 48-hour incubation): 4.9 µM | TGI ([6]; 48-hour incubation): >1.00E − 04 mol/l | CC50 [6, 29]: > 100 µM | GI50 ([7]; 48-hour incubation): 3.35 µM | TGI ([7]; 48-hour incubation): >1.00E − 04 mol/l | CC50 [7, 29]: > 100 µM | GI50 ([8]; 48-hour incubation): 57.8 µM | TGI ([8]; 48-hour incubation): >1.00E − 04 mol/l | CC50 [8, 29]: > 100 µM | GI50 ([9]; 48-hour incubation): 0.854 µM | TGI ([9]; 48-hour incubation): 1.34E − 05 mol/l | CC50 [9, 29]: 44.4 µM | GI50 ([10]; 48-hour incubation): > 100 µM | TGI ([10]; 48-hour incubation): >1.00E − 04 mol/l | CC50 [10, 29]: > 100 µM | GI50 ([11]; 48-hour incubation): 3.53 µM | TGI ([11]; 48-hour incubation): 8.62E − 05 mol/l | CC50 [11, 29]: > 100 µM | GI50 ([12]; 48-hour incubation): 13.6 µM | TGI ([12]; 48-hour incubation): >1.00E − 04 mol/l | CC50 [12, 29]: > 100 µM | GI50 ([13]; 48-hour incubation): 11.5 µM | TGI ([13]; 48-hour incubation): 8.64E − 05 mol/l | CC50 [13, 29]: > 100 µM | GI50 ([14]; 48-hour incubation): 0.488 µM | TGI ([14]; 48-hour incubation): 1.03E − 05 mol/l | CC50 [14, 29]: 80.3 µM | GI50 ([15]; 48-hour incubation): 0.919 µM | TGI ([15]; 48-hour incubation): 2.37E − 05 mol/l | CC50 [15, 29]: 64.1 µM | GI50 ([16]; 48-hour incubation): 12.5 µM | TGI ([16]; 48-hour incubation): >1.00E − 04 mol/l | CC50 [16, 29]: > 100 µM | GI50 ([17]; 48-hour incubation): 2.68 µM | TGI ([17]; 48-hour incubation): >1.00E − 04 mol/l | CC50 [17, 29]: > 100 µM | GI50 ([18]; 48-hour incubation): 0.466 µM | TGI ([18]; 48-hour incubation): >1.00E − 04 mol/l | CC50 [18, 29]: > 100 µM | GI50 ([19]; 48-hour incubation): 0.0466 µM | TGI ([19]; 48-hour incubation): 2.79E − 05 mol/l | CC50 [19, 29]: > 100 µM | GI50 ([20]; 48-hour incubation): 36.3 µM | TGI ([20]; 48-hour incubation): >1.00E − 04 mol/l | CC50 [20, 29]: > 100 µM | GI50 ([21]; 48-hour incubation): 1.77 µM | TGI ([21]; 48-hour incubation): >1.00E − 04 mol/l | CC50 [21, 29]: > 100 µM | GI50 ([22]; 48-hour incubation): > 100 µM | TGI ([22]; 48-hour incubation): >1.00E − 04 mol/l | CC50 [22, 29]: > 100 µM | GI50 ([23]; 48-hour incubation): 33.8 µM | TGI ([23]; 48-hour incubation): >1.00E − 04 mol/l | CC50 [23, 29]: > 100 µM | GI50 ([24]; 48-hour incubation): 16.2 µM | TGI ([24]; 48-hour incubation): >1.00E − 04 mol/l | CC50 [24, 29]: > 100 µM | GI50 ([25]; 48-hour incubation): > 100 µM | TGI ([25]; 48-hour incubation): >1.00E − 04 mol/l | CC50 [25, 29]: > 100 µM | GI50 ([26]; 48-hour incubation): > 100 µM | TGI ([26]; 48-hour incubation): >1.00E − 04 mol/l | CC50 [26, 29]: > 100 µM | GI50 ([27]; 48-hour incubation): 7.23 µM | TGI ([27]; 48-hour incubation): >1.00E − 04 mol/l | CC50 [27, 29]: > 100 µM | GI50 ([28]; 48-hour incubation): 0.699 µM | TGI ([28]; 48-hour incubation): >1.00E − 04 mol/l | CC50 [28, 29]: > 100 µM

Source: patent US6787525B1, “Glyceryl nucleotides, method for the production thereof and their use” (priority 1998, dated 2004)
